Patent publication US12275731B2, “Azaindole inhibitors of wild-type and mutant forms of LRRK2” (DANA-FARBER CANCER INSTITUTE, INC., priority 2018, dated 2025)

Legend:
Assay in all cases: KinomeScan profiling
Assay type in all cases: binding
CDC2L5 = CDC2L5 (Homo sapiens, UniProt Q14004); settings: CDC2L5, 1 μM; read-out: % control
Outline: (§1)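 Selectivity was assessed by binding competition at 1 μM against 468 kinases. Values below 35% of control define an interaction.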

CDK11 = CDK11 (Homo sapiens, UniProt Q9BWU1); settings: CDK11, 1 μM; read-out: % control
Chain of CDK11 (Q9BWU1 whole entry): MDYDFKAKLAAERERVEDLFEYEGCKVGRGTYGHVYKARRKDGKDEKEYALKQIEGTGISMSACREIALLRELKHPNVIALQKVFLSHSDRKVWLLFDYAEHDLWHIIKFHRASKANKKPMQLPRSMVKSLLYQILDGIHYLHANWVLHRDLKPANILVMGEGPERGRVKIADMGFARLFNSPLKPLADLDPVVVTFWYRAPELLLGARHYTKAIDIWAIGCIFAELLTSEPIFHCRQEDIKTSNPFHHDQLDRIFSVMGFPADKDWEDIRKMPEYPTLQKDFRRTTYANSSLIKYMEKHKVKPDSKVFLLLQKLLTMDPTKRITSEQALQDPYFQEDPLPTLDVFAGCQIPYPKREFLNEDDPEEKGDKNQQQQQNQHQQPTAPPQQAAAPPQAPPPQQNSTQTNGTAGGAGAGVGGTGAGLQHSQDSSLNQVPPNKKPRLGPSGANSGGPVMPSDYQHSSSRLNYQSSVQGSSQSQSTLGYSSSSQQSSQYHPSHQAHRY
Outline: as §1

CDKL2 = target: T1, CDKL2 (Homo sapiens, UniProt Q92772); settings: CDKL2, 1 μM; read-out: % control
T1 sequence (Q92772 1-493): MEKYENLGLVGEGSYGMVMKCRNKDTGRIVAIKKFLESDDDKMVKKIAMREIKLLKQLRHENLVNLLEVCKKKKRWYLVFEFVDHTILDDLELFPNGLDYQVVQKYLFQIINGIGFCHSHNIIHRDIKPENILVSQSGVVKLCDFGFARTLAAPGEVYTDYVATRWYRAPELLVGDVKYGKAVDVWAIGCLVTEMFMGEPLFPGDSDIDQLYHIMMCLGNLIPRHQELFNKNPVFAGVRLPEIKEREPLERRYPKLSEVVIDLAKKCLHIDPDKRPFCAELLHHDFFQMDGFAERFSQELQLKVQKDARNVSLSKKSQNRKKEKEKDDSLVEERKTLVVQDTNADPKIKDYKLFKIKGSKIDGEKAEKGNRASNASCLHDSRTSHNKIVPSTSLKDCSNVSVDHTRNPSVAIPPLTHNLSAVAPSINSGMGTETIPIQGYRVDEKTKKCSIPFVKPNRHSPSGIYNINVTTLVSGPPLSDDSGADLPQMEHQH
Outline: as §1

IRAK4 = target: T2, IRAK4 (Homo sapiens, UniProt Q9NWZ3); settings: IRAK4, 1 μM; read-out: % control
T2 construct: purchased KinomeScan®
T2 sequence (Q9NWZ3 1-460): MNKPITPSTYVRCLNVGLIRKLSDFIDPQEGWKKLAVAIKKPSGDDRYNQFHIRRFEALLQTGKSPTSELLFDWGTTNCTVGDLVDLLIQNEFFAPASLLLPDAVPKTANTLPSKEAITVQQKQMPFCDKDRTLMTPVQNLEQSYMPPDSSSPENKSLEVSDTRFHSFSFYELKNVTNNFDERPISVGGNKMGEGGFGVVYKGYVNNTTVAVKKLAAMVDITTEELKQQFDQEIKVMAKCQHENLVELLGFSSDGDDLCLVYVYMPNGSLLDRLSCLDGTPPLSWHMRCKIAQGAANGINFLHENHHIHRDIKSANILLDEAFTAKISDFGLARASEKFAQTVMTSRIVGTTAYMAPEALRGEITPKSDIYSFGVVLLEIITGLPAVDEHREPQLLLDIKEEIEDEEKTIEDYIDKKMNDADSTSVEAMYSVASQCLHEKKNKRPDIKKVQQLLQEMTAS
Outline: as §1

ITK = target: T3, ITK (Homo sapiens, UniProt Q08881); settings: read-out: % control
T3 construct: purchased KinomeScan®
T3 sequence (Q08881 1-620): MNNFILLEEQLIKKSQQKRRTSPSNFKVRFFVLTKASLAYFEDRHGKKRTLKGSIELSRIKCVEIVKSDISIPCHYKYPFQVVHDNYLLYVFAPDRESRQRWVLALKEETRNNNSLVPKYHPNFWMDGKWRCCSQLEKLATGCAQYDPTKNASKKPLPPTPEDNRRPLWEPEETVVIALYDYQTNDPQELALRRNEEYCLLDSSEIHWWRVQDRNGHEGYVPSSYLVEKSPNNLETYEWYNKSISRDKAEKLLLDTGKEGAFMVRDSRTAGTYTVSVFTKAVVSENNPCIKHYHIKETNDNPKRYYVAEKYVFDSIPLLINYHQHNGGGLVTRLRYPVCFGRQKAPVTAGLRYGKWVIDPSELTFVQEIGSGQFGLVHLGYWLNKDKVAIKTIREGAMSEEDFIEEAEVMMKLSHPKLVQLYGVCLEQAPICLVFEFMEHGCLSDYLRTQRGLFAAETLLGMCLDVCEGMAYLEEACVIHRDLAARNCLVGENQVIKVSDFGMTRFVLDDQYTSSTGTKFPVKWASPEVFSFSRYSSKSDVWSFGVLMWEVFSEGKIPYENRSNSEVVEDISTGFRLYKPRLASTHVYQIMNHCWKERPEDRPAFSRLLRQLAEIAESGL
Outline: as §1

KIT(V559D, T670I) = target: T4, KIT(V559D, T670I) (Homo sapiens, UniProt P10721, T670I/V559D); settings: read-out: % control
T4 construct: purchased KinomeScan®
T4 sequence (P10721 26-976 V559D/T670I): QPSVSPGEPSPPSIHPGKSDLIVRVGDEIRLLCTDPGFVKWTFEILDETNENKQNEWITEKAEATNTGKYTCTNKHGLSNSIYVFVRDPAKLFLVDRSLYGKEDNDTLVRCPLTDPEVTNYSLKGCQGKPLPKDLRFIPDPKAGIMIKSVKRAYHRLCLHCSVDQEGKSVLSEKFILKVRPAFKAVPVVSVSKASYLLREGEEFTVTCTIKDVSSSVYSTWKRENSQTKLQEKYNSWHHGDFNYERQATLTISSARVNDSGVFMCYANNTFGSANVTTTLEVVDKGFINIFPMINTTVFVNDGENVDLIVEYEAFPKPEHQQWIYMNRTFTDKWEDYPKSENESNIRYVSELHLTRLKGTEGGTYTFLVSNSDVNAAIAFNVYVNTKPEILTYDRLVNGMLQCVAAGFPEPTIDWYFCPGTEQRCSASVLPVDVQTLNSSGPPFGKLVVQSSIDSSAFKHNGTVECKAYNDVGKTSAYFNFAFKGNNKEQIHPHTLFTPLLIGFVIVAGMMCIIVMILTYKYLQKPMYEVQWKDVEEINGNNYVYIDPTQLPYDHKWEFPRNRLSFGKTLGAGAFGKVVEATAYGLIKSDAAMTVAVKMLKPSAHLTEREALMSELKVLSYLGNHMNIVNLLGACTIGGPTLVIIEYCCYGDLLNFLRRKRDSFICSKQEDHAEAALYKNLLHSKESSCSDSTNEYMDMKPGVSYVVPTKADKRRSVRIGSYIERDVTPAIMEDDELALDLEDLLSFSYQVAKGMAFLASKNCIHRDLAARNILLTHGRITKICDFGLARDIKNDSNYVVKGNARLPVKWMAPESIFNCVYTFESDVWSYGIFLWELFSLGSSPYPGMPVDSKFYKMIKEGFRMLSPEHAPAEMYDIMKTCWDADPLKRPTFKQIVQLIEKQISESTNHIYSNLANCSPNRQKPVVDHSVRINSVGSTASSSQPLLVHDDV
Outline: as §1

LRRK2 = LRRK2 (Homo sapiens, UniProt Q5S007); settings: LRRK2, 1 μM; read-out: % control
Outline: as §1

[1] = target: T5, RPS6KA5(Kin.Dom.2-C-terminal) (Homo sapiens, UniProt O75582); settings: read-out: % control
T5 construct: RPS6KA5(Kin.Dom.2-C-terminal)
T5 sequence (O75582 426-687 limits assumed): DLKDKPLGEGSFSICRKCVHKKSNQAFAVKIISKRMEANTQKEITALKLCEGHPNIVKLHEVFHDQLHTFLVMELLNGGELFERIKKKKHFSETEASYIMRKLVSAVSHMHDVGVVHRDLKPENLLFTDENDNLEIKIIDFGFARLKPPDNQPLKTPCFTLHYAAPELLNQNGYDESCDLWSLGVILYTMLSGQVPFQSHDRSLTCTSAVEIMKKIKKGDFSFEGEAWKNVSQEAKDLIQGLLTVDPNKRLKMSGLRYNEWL
Outline: as §1

YSK1 = YSK1 (Homo sapiens, UniProt O00506); settings: YSK1, 1 μM; read-out: % control
Chain of YSK1 (O00506 whole entry): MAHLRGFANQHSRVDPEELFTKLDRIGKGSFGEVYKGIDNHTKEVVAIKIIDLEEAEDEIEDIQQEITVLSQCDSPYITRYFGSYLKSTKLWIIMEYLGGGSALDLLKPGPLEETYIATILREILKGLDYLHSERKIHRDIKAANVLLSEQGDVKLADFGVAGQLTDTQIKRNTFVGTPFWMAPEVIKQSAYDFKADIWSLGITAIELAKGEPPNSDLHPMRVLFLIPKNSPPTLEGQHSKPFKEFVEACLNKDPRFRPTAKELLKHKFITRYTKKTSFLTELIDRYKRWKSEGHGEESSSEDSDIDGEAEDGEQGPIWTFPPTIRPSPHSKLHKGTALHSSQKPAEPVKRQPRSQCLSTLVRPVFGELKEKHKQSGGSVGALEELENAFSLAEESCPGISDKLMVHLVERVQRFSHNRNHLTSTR
Outline: as §1

Chain of CDC2L5 (Q14004 whole entry): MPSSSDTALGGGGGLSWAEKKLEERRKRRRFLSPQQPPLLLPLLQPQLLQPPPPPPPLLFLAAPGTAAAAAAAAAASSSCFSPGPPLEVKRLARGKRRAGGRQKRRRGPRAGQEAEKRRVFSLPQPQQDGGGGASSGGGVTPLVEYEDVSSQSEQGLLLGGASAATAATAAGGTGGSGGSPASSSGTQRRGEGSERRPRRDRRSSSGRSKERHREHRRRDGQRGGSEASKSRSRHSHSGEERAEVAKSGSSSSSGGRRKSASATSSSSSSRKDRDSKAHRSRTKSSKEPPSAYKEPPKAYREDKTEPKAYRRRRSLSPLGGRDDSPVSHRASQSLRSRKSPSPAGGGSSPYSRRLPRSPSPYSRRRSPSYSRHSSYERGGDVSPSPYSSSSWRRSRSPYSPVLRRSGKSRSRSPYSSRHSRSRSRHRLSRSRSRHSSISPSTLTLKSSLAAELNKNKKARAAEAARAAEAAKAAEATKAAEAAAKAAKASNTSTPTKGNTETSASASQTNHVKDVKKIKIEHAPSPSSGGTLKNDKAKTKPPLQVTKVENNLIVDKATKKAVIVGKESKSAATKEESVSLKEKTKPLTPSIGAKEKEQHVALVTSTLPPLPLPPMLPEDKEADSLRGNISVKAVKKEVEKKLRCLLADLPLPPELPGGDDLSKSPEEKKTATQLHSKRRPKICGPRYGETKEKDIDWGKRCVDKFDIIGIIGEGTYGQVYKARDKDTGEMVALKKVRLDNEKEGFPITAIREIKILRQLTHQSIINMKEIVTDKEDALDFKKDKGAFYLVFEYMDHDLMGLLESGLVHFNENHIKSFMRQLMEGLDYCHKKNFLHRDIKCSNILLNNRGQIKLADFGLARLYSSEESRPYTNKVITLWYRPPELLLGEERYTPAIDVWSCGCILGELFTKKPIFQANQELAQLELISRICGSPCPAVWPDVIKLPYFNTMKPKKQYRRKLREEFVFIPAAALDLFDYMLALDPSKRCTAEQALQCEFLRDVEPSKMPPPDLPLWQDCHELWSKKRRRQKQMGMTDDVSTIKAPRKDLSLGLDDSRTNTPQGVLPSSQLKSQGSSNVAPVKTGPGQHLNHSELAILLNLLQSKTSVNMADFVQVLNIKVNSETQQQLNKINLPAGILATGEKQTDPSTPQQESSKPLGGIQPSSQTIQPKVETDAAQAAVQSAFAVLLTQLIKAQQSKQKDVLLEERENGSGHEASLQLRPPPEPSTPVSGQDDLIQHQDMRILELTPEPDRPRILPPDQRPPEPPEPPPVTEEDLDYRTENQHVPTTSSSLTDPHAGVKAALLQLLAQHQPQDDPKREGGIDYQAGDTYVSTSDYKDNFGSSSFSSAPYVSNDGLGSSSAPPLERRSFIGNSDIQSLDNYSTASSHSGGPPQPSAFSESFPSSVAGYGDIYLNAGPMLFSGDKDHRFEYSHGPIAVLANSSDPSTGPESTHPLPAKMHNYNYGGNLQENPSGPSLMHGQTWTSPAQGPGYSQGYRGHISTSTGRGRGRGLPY

| SMILES | remaining binding at 1 µM (CDC2L5) [%] | remaining binding at 1 µM (CDK11) [%] | remaining binding at 1 µM (CDKL2) [%] | remaining binding at 1 µM (IRAK4) [%] | remaining binding at 1 µM (ITK) [%] | remaining binding at 1 µM (KIT(V559D, T670I)) [%] | remaining binding at 1 µM (LRRK2) [%] | remaining binding at 1 µM [1] [%] | remaining binding at 1 µM (YSK1) [%] |
| --- | --- | --- | --- | --- | --- | --- | --- | --- | --- |
| CNc1c(-c2cnn([C@H]3CCN(C(C)=O)C[C@@H]3F)c2)cnc2[nH]cc(Cl)c12 [Compound 77, 1-((3S,4S)-4-(4-(3-chloro-4-(methylamino)-1H-pyrrolo[2,3-b]pyridin-5-yl)-1H-pyrazol-1-yl)-3-fluoropiperidin-1-yl)ethan-1-one] | 100 | 96 | 95 | 26 | 71 | 9.7 | 15 | 100 | 84 |
| O=C(c1ccc(-c2cnc3[nH]cc(Cl)c3c2NC2CCCC2)cc1)N1CCC(N2CCOCC2)CC1 [Compound 101, (4-(3-chloro-4-(cyclopentylamino)-1H-pyrrolo[2,3-b]pyridin-5-yl)phenyl)(4-morpholinopiperidin-1-yl)methanone] | 2.1 | 35 | 100 | 100 | 90 | 71 | 33 | 96 | 100 |
| CNc1c(-c2ccc(C(=O)N3CCC(N4CCOCC4)CC3)cc2)cnc2[nH]cc(Cl)c12 [Compound 96, (4-(3-chloro-4-(methylamino)-1H-pyrrolo[2,3-b]pyridin-5-yl)phenyl)(4-morpholinopiperidin-1-yl)methanone] | 100 | 68 | 97 | 62 | 93 | 27 | 2.6 | 100 | 97 |
